In PubChem BioAssay (NCI) one finds TGI data, which are given here for four compounds.

Holding throughout (assay): NCI tumour cell line growth inhibition, 48 h
For assay [1], the system named is SN12K1 renal.
Assay [2] has as its system HCC-2998 colon.
In assay [3] the test system is NCI-H226 lung.
The subject of assay [4] is P388/ADR leukemia.
The test system of assay [5] is SK-MEL-2 melanoma.
In assay [6] the test system is P388 leukemia.
In assay [7] the test system is DLD-1 colon.
Assay [8] deals with HS 578T breast.
In assay [9] the test system is T-47D breast.
In assay [10] the test system is LXFL 529 NSCLC.

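Briefly, cells in 96-well plates were exposed to five compound concentrations for 48 h, and endpoints were estimated by linear interpolation. Definition used: TGI = concentration required for complete inhibition of growth.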 Some results are limits rather than exact numbers.

In the case of `COc1nc(NC2OC(CO)C(O)C(O)C2O)c(N)c(=O)[nH]1` (configuration not stated), the TGI in assay [1] was more than 100 µM; in assay [2], more than 100 µM; in [3], more than 31.6 µM; in assay [4], more than 100 µM; in assay [5] it was more than 100 µM; in assay [6] it was more than 100 µM. This compound had a TGI in assay [7] of more than 100 µM.

As for `COc1ccc(-c2c3c(nc4nc(SCC(=O)c5ccc(Br)cc5)nc(N)c24)CCCC3)cc1OC`, the TGI in assay [8] is 28.6 µM; in assay [9], more than 100 µM.

For `COC(=O)Cc1c(C2C(CC(=O)OC)c3ccccc3N2C2OC(CO)C(O)C(O)C2O)[nH]c2ccccc12` (configuration not stated), the TGI in assay [2] and in assay [5] was more than 100 µM in each case.

Compound `O=C1CCC2COc3ccc(O)c1c32` (configuration not stated) yielded a TGI in assay [10] of more than 100 µM.
